We go through 25 compounds from patent US12570631B2, “Substituted N-(4-(pyrimidin and pyridin-4-yl)benzylcarboxamides and its use for treating disorders responsive to inhibition of Btk” (BIOGEN MA INC., priority 2019, dated 2026).

Where two headings read alike, the source gives them in different places.

One experiment addresses BTK (Homo sapiens (Human), UniProt Q06187). Briefly: In vitro BTK kinase assay: Btk-PolyGAT-LS assay. It counts as biochemical. Particulars: ATP 10 μM, polyGAT 100 nM, BTK 0.25 nM, 30 minutes.
The test system of experiment [1] is CD69 expression on CD19+ B cells in human whole blood. The experiment in a line: In vitro whole blood CD69 assay. It counts as cell-based. Particulars: B-cell.
[2] abbreviates: Whole Blood CD69 inhibition, human heparinized blood, anti-human IgD stimulation, CD19+ B cells expressing CD69, read-out: IC50.

BTK, sequence (Q06187 whole entry): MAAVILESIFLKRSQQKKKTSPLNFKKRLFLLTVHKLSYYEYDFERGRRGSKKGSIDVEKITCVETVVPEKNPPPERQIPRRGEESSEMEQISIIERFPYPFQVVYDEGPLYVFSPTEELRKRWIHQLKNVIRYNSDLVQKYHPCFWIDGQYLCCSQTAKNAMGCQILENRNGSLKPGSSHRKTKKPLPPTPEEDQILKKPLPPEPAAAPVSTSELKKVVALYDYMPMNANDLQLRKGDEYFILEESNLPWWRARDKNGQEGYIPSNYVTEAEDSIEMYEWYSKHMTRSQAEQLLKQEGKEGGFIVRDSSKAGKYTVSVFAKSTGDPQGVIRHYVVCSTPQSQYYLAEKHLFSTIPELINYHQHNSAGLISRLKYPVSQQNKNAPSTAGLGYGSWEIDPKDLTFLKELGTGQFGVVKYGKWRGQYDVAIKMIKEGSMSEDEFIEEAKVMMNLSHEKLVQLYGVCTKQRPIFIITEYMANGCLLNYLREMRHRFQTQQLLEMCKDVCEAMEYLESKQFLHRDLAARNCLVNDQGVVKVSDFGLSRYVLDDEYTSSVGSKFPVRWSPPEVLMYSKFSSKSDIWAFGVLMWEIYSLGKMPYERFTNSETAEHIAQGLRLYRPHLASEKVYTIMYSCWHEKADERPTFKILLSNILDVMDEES

As to `C=CC(=O)N(C)CCOc1c(N)ncnc1-c1ccc(CNC(=O)c2nnc(C(C)(C)C)o2)c(C)c1` [Example 1, N-(4-(6-amino-5-(2-(N-methylacrylamido)ethoxy)pyrimidin-4-yl)-2-methylbenzyl)-5-(tert-butyl)-1,3,4-oxadiazole-2-carboxamide], the IC50 against BTK was less than 1 nM; in experiment [1] (Homo sapiens), less than 100 nM.

Consider `C=CC(=O)N(C)CCOc1c(N)ncnc1-c1ccc(CNC(=O)c2noc(C(C)(C)C)n2)c(C)c1` [Example 2, N-(4-(6-amino-5-(2-(N-methylacrylamido)ethoxy)pyrimidin-4-yl)-2-methylbenzyl)-5-(tert-butyl)-1,2,4-oxadiazole-3-carboxamide], for which the half-inhibitory concentration (IC50) against BTK is less than 1 nM; in experiment [1] (Homo sapiens) it was less than 100 nM.

On to `C=CC(=O)N(C)CCOc1cncnc1-c1ccc(CNC(=O)c2noc(C(C)(C)C)n2)c(C)c1` [Example 3, 5-(tert-butyl)-N-(2-methyl-4-(5-(2-(N-methylacrylamido)ethoxy)-pyrimidin-4-yl)benzyl)-1,2,4-oxadiazole-3-carboxamide], for which the values for the IC50 (against BTK; in experiment [1] (setting [2])) were less than 1 nM and less than 100 nM, respectively.

Turning to `C=CC(=O)N(C)CCOc1cnccc1-c1ccc(CNC(=O)c2noc(C(C)(C)C)n2)c(C)c1` [Example 4, 5-(tert-butyl)-N-(2-methyl-4-(3-(2-(N-methylacrylamido)ethoxy)pyridin-4-yl)benzyl)-1,2,4-oxadiazole-3-carboxamide], the IC50 against BTK was less than 1 nM; in experiment [1] (setting [2]), less than 100 nM.

On to `C=CC(=O)N(C)CCOc1cnccc1-c1ccc(CNC(=O)c2noc(C(C)(C)C)n2)c(C)c1F` [Example 5, 5-(tert-butyl)-N-(3-fluoro-2-methyl-4-(3-(2-(N-methylacrylamido)ethoxy)pyridin-4-yl)benzyl)-1,2,4-oxadiazole-3-carboxamide], for which the results for the IC50 (at BTK; in experiment [1] (setting [2])) were less than 1 nM and less than 100 nM, respectively.

As for `C=CC(=O)N(C)CCOc1c(N)ncnc1-c1ccc(CN2CCc3c(cnn3C(C)(C)C)C2=O)c(C)c1` [Example 6, N-(2-((4-amino-6-(4-((1-(tert-butyl)-4-oxo-1,4,6,7-tetrahydro-5H-pyrazolo[4,3-c]pyridin-5-yl)methyl)-3-methylphenyl)pyrimidin-5-yl)oxy)ethyl)-N-methylacrylamide], the IC50 at BTK is less than 1 nM; in experiment [1] (setting [2]), less than 100 nM.

On to `C=CC(=O)N(C)CCOc1c(N)ncnc1-c1ccc(CNC(=O)c2nc(C(C)(C)C)no2)c(C)c1` [Example 7, N-(4-(6-amino-5-(2-(N-methylacrylamido)ethoxy)pyrimidin-4-yl)-2-methylbenzyl)-3-(tert-butyl)-1,2,4-oxadiazole-5-carboxamide], for which the half-inhibitory concentration (IC50) is less than 1 nM against BTK and less than 100 nM in experiment [1] (setting [2]).

With `C=CC(=O)N(C)CCOc1c(N)ncnc1-c1ccc(CNC(=O)c2cn(C(C)(C)C)nn2)c(C)c1` [Example 8, N-(4-(6-amino-5-(2-(N-methylacrylamido)ethoxy)pyrimidin-4-yl)-2-methylbenzyl)-1-(tert-butyl)-1H-1,2,3-triazole-4-carboxamide], the IC50 on BTK is less than 1 nM; in experiment [1] (setting [2]), less than 100 nM.

For `C=CC(=O)N(C)CCOc1c(N)ncnc1-c1ccc(CN2CCN(CC(C)(C)C)CC2=O)c(C)c1` [Example 9, N-(2-((4-amino-6-(3-methyl-4-((4-neopentyl-2-oxopiperazin-1-yl)methyl)phenyl)pyrimidin-5-yl)oxy)ethyl)-N-methylacrylamide], the IC50 is less than 1 nM at BTK and less than 100 nM in experiment [1] (setting [2]).

For `C=CC(=O)N(C)CCOc1c(N)ncnc1-c1ccc(CNC(=O)c2cnn(C(C)(C)C)c2)c(C)c1` [Example 10, N-(4-(6-amino-5-(2-(N-methylacrylamido)ethoxy)pyrimidin-4-yl)-2-methylbenzyl)-1-(tert-butyl)-1H-pyrazole-4-carboxamide], the IC50 was less than 1 nM against BTK and less than 100 nM in experiment [1] (setting [2]).

`C=CC(=O)N(C)CCOc1c(N)ncnc1-c1ccc(CN2Cc3cc(C4CC4)sc3C2=O)c(C)c1` [Example 11, N-(2-((4-amino-6-(4-((2-cyclopropyl-6-oxo-4,6-dihydro-5H-thieno[2,3-c]pyrrol-5-yl)methyl)-3-methylphenyl)pyrimidin-5-yl)oxy)ethyl)-N-methylacrylamide]: the results for the IC50 (at BTK; in experiment [1] (setting [2])) were less than 1 nM and 100 to 1000 nM, respectively.

Regarding `C=CC(=O)N(C)CCOc1cnccc1-c1ccc(CN2CCc3c(cnn3C(C)(C)C)C2=O)c(C)c1` [Example 12, N-(2-((4-(4-((1-(tert-butyl)-4-oxo-1,4,6,7-tetrahydro-5H-pyrazolo[4,3-c]pyridin-5-yl)methyl)-3-methylphenyl)pyridin-3-yl)oxy)ethyl)-N-methylacrylamide], the IC50 at BTK was less than 1 nM; in experiment [1] (setting [2]), 100 to 1000 nM.

With `C=CC(=O)N1CCCC[C@@H]1C(=O)Nc1cnccc1-c1ccc(CNC(=O)c2noc(C(C)(C)C)n2)c(C)c1` [Example 31, (R)-N-(4-(3-(1-acryloylpiperidine-2-carboxamido)pyridin-4-yl)-2-methylbenzyl)-5-(tert-butyl)-1,2,4-oxadiazole-3-carboxamide], the IC50 was less than 1 nM against BTK and less than 100 nM in experiment [1] (setting [2]).

As to `C=CC(=O)N1CCCC[C@H]1C(=O)Nc1cnccc1-c1ccc(CNC(=O)c2noc(C(C)(C)C)n2)c(C)c1` [Example 32, (S)-N-(4-(3-(1-acryloylpiperidine-2-carboxamido)pyridin-4-yl)-2-methylbenzyl)-5-(tert-butyl)-1,2,4-oxadiazole-3-carboxamide], the IC50 at BTK is less than 1 nM; in experiment [1] (setting [2]), less than 100 nM.

Consider `C=CC(=O)N1CC(Oc2cnccc2-c2ccc(CNC(=O)c3cn(C(C)(C)C)nn3)c(C)c2)C1` [Example 33, N-(4-(3-((1-acryloylazetidin-3-yl)oxy)pyridin-4-yl)-2-methylbenzyl)-1-(tert-butyl)-1H-1,2,3-triazole-4-carboxamide], for which the IC50 was 1 to 10 nM on BTK and more than 1000 nM in experiment [1] (Homo sapiens).

On to `C=CC(=O)N1CCC(Oc2cnccc2-c2ccc(CNC(=O)c3cn(C(C)(C)C)nn3)c(C)c2)CC1` [Example 37, N-(4-(3-((1-acryloylpiperidin-4-yl)oxy)pyridin-4-yl)-2-methylbenzyl)-1-(tert-butyl)-1H-1,2,3-triazole-4-carboxamide], for which the IC50 at BTK was less than 1 nM; in experiment [1] (setting [2]), more than 1000 nM.

As for `C=CC(=O)N1CCCC(Oc2cnccc2-c2ccc(CNC(=O)c3cn(C(C)(C)C)nn3)c(C)c2)C1` (centres unmarked) [Example 38, N-(4-(3-((1-acryloylpiperidin-3-yl)oxy)pyridin-4-yl)-2-methylbenzyl)-1-(tert-butyl)-1H-1,2,3-triazole-4-carboxamide], the IC50 on BTK was more than 10 nM; in experiment [1] (setting [2]) it was more than 1000 nM.

For the compound `C=CC(=O)N1CCCC(Oc2cncnc2-c2ccc(CNC(=O)c3cn(C(C)(C)C)nn3)c(C)c2)C1` (centres unmarked) [Example 39, N-(4-(5-((1-acryloylpiperidin-3-yl)oxy)pyrimidin-4-yl)-2-methylbenzyl)-1-(tert-butyl)-1H-1,2,3-triazole-4-carboxamide], the IC50 on BTK was more than 10 nM; in experiment [1] (setting [2]), more than 1000 nM.

For `Cc1cc(-c2ccncc2OC2CN(C(=O)/C=C/CN(C)C)C2)ccc1CNC(=O)c1cn(C(C)(C)C)nn1` [Example 40, (E)-1-(tert-butyl)-N-(4-(3-((1-(4-(dimethylamino)but-2-enoyl)azetidin-3-yl)oxy)pyridin-4-yl)-2-methylbenzyl)-1H-1,2,3-triazole-4-carboxamide], the IC50 at BTK is more than 10 nM; in experiment [1] (setting [2]) it was more than 1000 nM.

Consider `Cc1cc(-c2ccncc2OC2CCN(C(=O)/C=C/CN(C)C)C2)ccc1CNC(=O)c1cn(C(C)(C)C)nn1` (centres unmarked) [Example 41, (E)-1-(tert-butyl)-N-(4-(3-((1-(4-(dimethylamino)but-2-enoyl)pyrrolidin-3-yl)oxy)pyridin-4-yl)-2-methylbenzyl)-1H-1,2,3-triazole-4-carboxamide], for which the IC50 is more than 10 nM on BTK and more than 1000 nM in experiment [1] (setting [2]).

Consider `Cc1cc(-c2ccncc2OC2CCN(C(=O)/C=C/CN(C)C)CC2)ccc1CNC(=O)c1cn(C(C)(C)C)nn1` [Example 42, (E)-1-(tert-butyl)-N-(4-(3-((1-(4-(dimethylamino)but-2-enoyl)piperidin-4-yl)oxy)pyridin-4-yl)-2-methylbenzyl)-1H-1,2,3-triazole-4-carboxamide], for which the IC50 at BTK was less than 1 nM; in experiment [1] (setting [2]) it was 100 to 1000 nM.

Regarding `C#CC(=O)N1CCC(Oc2cnccc2-c2ccc(CNC(=O)c3cn(C(C)(C)C)nn3)c(C)c2)C1` (centres unmarked) [Example 43, 1-(tert-butyl)-N-(2-methyl-4-(3-((1-propioloylpyrrolidin-3-yl)oxy)pyridin-4-yl)benzyl)-1H-1,2,3-triazole-4-carboxamide], the figures for the IC50 (on BTK; in experiment [1] (setting [2])) were 1 to 10 nM and more than 1000 nM, respectively.

With `C#CC(=O)N1CCC(Oc2cnccc2-c2ccc(CNC(=O)c3cn(C(C)(C)C)nn3)c(C)c2)CC1` [Example 44, 1-(tert-butyl)-N-(2-methyl-4-(3-((1-propioloylpiperidin-4-yl)oxy)pyridin-4-yl)benzyl)-1H-1,2,3-triazole-4-carboxamide], the IC50 is less than 1 nM at BTK and more than 1000 nM in experiment [1] (setting [2]).

In the case of `C=CC(=O)N1CCCC1COc1cnccc1-c1ccc(CNC(=O)c2cn(C(C)(C)C)nn2)c(C)c1F` (centres unmarked) [Example 49, N-(4-(3-((1-acryloylpyrrolidin-2-yl)methoxy)pyridin-4-yl)-3-fluoro-2-methylbenzyl)-1-(tert-butyl)-1H-1,2,3-triazole-4-carboxamide], the IC50 was 1 to 10 nM against BTK and more than 1000 nM in experiment [1] (setting [2]).

With `C=CS(=O)(=O)N1CCCC1COc1cnccc1-c1ccc(CNC(=O)c2cn(C(C)(C)C)nn2)c(C)c1F` (centres unmarked) [Example 50, 1-(tert-butyl)-N-(3-fluoro-2-methyl-4-(3-((1-(vinylsulfonyl)pyrrolidin-2-yl)methoxy)pyridin-4-yl)benzyl)-1H-1,2,3-triazole-4-carboxamide], the results for the IC50 (against BTK; in experiment [1] (setting [2])) were less than 1 nM and more than 1000 nM, respectively.
